Laboratory results as given in patent US10947289B2, “Glyco-modified atrial natriuretic peptide” (priority 2013, dated 2021).
*1 amine or outer side, *2 acyl side, *3 side chain or, on linkers, in order; H or OH if unused. Where a SMILES comes first, the peptide text is derived from it. Bridges are numbered along the chain shown (N, C = ends). [ ]: non-standard residue; d: D form. X2 = CC(=O)N[C@H]1[C@H](O[C@H]2[C@H](O)[C@@H](NC(C)=O)[C@H](OC[C@H](N[*:1])C(=O)[*:2])O[C@@H]2CO)O[C@H](CO)[C@@H](O[C@@H]2O[C@H](CO[C@H]3O[C@H](CO)[C@@H](O)[C@H](O)[C@@H]3O[C@@H]3O[C@H](CO)[C@@H](O[C@@H]4O[C@H](CO[C@]5(C(=O)O)C[C@H](O)[C@@H](NC(C)=O)[C@H]([C@H](O)[C@H](O)CO)O5)[C@H](O)[C@H](O)[C@H]4O)[C@H](O)[C@H]3NC(C)=O)[C@@H](O)[C@H](O[C@H]3O[C@H](CO)[C@@H](O)[C@H](O)[C@@H]3O[C@@H]3O[C@H](CO)[C@@H](O[C@@H]4O[C@H](CO[C@]5(C(=O)O)C[C@H](O)[C@@H](NC(C)=O)[C@H]([C@H](O)[C@H](O)CO)O5)[C@H](O)[C@H](O)[C@H]4O)[C@H](O)[C@H]3NC(C)=O)[C@@H]2O)[C@@H]1O

What follows are compounds tested against T1, human GC-A (Homo sapiens, UniProt P16066) (assay: cGMP elevating activity in CHO/human GC-A cells (Test Example 1)).
T1 construct: expressed in transfected cells; host or cells: CHO cells
T1 sequence (P16066 33-1061): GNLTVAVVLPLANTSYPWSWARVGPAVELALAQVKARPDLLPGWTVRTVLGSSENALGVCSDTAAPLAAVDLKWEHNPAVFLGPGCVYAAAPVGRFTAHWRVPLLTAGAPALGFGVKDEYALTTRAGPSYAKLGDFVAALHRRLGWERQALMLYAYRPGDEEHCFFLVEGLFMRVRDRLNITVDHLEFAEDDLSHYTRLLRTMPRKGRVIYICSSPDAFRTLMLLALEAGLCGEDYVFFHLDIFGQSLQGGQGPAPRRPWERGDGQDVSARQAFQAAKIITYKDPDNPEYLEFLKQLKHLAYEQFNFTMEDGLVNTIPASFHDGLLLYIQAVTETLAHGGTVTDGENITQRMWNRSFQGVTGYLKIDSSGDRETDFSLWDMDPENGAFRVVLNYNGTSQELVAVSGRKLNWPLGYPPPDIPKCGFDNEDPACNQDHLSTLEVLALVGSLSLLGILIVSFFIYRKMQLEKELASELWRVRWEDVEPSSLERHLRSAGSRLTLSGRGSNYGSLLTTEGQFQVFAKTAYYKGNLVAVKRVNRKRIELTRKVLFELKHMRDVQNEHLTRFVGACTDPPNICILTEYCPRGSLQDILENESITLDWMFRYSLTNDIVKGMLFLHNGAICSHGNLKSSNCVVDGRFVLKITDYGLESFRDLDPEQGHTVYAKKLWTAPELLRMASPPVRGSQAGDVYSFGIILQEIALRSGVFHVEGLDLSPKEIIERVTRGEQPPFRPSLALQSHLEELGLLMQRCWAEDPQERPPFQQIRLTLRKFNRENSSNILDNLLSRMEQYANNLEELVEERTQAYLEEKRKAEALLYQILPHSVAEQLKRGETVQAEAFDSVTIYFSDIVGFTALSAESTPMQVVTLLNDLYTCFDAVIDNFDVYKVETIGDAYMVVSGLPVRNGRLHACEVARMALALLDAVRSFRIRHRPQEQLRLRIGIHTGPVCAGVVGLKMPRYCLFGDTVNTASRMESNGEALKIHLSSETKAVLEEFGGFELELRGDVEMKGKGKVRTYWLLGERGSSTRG
Format: cell-based
Method: The cGMP elevating activity of each modified peptide prepared in Example 2 was measured by the following method:
CHO/human GC-A cells, which are CHO cells constitutively expressing human GC-A, were suspended at 2×10^5 cells/ml in α-MEM, 10% FBS, and 1% penicillin-streptomycin, inoculated at 20 μl/well (4×10^3 cells/well) onto a 384-well plate (Corning, 3826), and cultured overnight in a CO2 incubator. On the next day, the medium was removed from this plate, and then, 1.6 mM IBMX/KRB buffer was added thereto at 10 μl/well. The mixture was stirred on a plate shaker and then incubated at room temperature for 10 minutes. […] The mixture was stirred on a plate shaker and then incubated for 15 minutes in a CO2 incubator. Thereafter, a lysis buffer (50 mM phosphate buffer, pH 7.0, and 1% Triton X-100) was added thereto at 5 μl/well. The cells were lysed by stirring for 10 minutes on a plate shaker. Subsequently, the cGMP levels in the cell lysates were measured by use of a cGMP kit (manufactured by Cisbio Bioassays). Specifically, to a 384-well plate (Greiner, 784076), 5 μl/well of a diluent attached to the kit, 5 μl/well of the cell lysate, 5 μl/well of cGMP-d2, and 5 μl/well of anti cGMP-Cryptate were added. The mixture was stirred on a plate shaker and then incubated overnight at 4° C. in the dark, followed by the measurement of homogeneous time-resolved fluorescence using RubyStar (manufactured by BMG LABTECH JAPAN Ltd.). The activity value (T/C) of the test substance at each concentration was calculated when the activity value of a well supplemented with only a solvent was defined as 0 and the activity value of a well supplemented with 1 nM ANP was defined as 1.

Compound	EC50
CC[C@H](C)[C@@H]1NC(=O)[C@H](CCCNC(=N)N)NC(=O)[C@H](CC(=O)O)NC(=O)[C@H](CCSC)NC(=O)[C@H](CCCNC(=N)N)NC(=O)CNC(=O)CNC(=O)[C@H](Cc2ccccc2)NC(=O)[C@@H](NC(=O)[C@H](CO)NC(=O)[C@H](CO)NC(=O)[C@H](CCCNC(=N)N)NC(=O)[C@H](CCCNC(=N)N)NC(=O)[C@H](CC(C)C)NC(=O)[C@H](CO)NC(=O)CCOCCOCCOCCOCCNC(=O)[C@H](CC(=O)N[C@@H]2O[C@H](CO)[C@@H](O[C@@H]3O[C@H](CO)[C@@H](O[C@@H]4O[C@H](CO[C@H]5O[C@H](CO)[C@@H](O)[C@H](O)[C@@H]5O[C@@H]5O[C@H](CO)[C@@H](O)[C@H](O)[C@H]5NC(C)=O)[C@@H](O)[C@H](O[C@H]5O[C@H](CO)[C@@H](O)[C@H](O)[C@@H]5O[C@@H]5O[C@H](CO)[C@@H](O)[C@H](O)[C@H]5NC(C)=O)[C@@H]4O)[C@H](O)[C@H]3NC(C)=O)[C@H](O)[C@H]2NC(C)=O)NC(=O)CO[C@@H]2O[C@H](CO)[C@@H](O[C@@H]3O[C@H](CO)[C@@H](O[C@@H]4O[C@H](CO[C@H]5O[C@H](CO)[C@@H](O)[C@H](O)[C@@H]5O[C@@H]5O[C@H](CO)[C@@H](O)[C@H](O)[C@H]5NC(C)=O)[C@@H](O)[C@H](O[C@H]5O[C@H](CO)[C@@H](O)[C@H](O)[C@@H]5O[C@@H]5O[C@H](CO)[C@@H](O)[C@H](O)[C@H]5NC(C)=O)[C@@H]4O)[C@H](O)[C@H]3NC(C)=O)[C@H](O)[C@H]2NC(C)=O)CSSC[C@@H](C(=O)N[C@@H](CC(N)=O)C(=O)N[C@@H](CO)C(=O)N[C@@H](Cc2ccccc2)C(=O)N[C@@H](CCCNC(=N)N)C(=O)N[C@@H](Cc2ccc(O)cc2)C(=O)O)NC(=O)CNC(=O)[C@H](CC(C)C)NC(=O)CNC(=O)[C@H](CO)NC(=O)[C@H](CCC(N)=O)NC(=O)[C@H](C)NC(=O)CNC1=O [Compound 2-22, AG(7)-(AG(7)-)Asn-PEG(3)-hANP(1-28)]	0.08 nM
CC[C@H](C)[C@@H]1NC(=O)[C@H](CCCNC(=N)N)NC(=O)[C@H](CC(=O)O)NC(=O)[C@H](CCSC)NC(=O)[C@H](CCCNC(=N)N)NC(=O)CNC(=O)CNC(=O)[C@H](Cc2ccccc2)NC(=O)[C@@H](NC(=O)[C@H](CO)NC(=O)[C@H](CO)NC(=O)[C@H](CCCNC(=N)N)NC(=O)[C@H](CCCNC(=N)N)NC(=O)[C@H](CC(C)C)NC(=O)[C@@H](N)CO[C@@H]2O[C@H](CO)[C@@H](O[C@@H]3O[C@H](CO)[C@@H](O[C@@H]4O[C@H](CO[C@H]5O[C@H](CO)[C@@H](O)[C@H](O)[C@@H]5O[C@@H]5O[C@H](CO)[C@@H](O[C@@H]6O[C@H](CO[C@]7(C(=O)O)C[C@H](O)[C@@H](NC(C)=O)[C@H]([C@H](O)[C@H](O)CO)O7)[C@H](O)[C@H](O)[C@H]6O)[C@H](O)[C@H]5NC(C)=O)[C@@H](O)[C@H](O[C@H]5O[C@H](CO)[C@@H](O)[C@H](O)[C@@H]5O[C@@H]5O[C@H](CO)[C@@H](O[C@@H]6O[C@H](CO[C@]7(C(=O)O)C[C@H](O)[C@@H](NC(C)=O)[C@H]([C@H](O)[C@H](O)CO)O7)[C@H](O)[C@H](O)[C@H]6O)[C@H](O)[C@H]5NC(C)=O)[C@@H]4O)[C@H](O)[C@H]3NC(C)=O)[C@H](O)[C@H]2NC(C)=O)CSSC[C@@H](C(=O)N[C@@H](CC(N)=O)C(=O)N[C@@H](CO)C(=O)N[C@@H](Cc2ccccc2)C(=O)N[C@@H](CCCNC(=N)N)C(=O)N[C@@H](Cc2ccc(O)cc2)C(=O)O)NC(=O)CNC(=O)[C@H](CC(C)C)NC(=O)CNC(=O)[C@H](CO)NC(=O)[C@H](CCC(N)=O)NC(=O)[C@H](C)NC(=O)CNC1=O [Compound 2-5, (SG-)Ser-hANP(2-28)] (H-[X2]LRRSSCFGGRMDRIGAQSGLGCNSFRY-OH; disulfide 7-23)	0.082 nM
CC[C@H](C)[C@@H]1NC(=O)[C@H](CCCNC(=N)N)NC(=O)[C@H](CC(=O)O)NC(=O)[C@H](CCSC)NC(=O)[C@H](CCCNC(=N)N)NC(=O)CNC(=O)CNC(=O)[C@H](Cc2ccccc2)NC(=O)[C@@H](NC(=O)[C@H](CO)NC(=O)[C@H](CO)NC(=O)[C@H](CCCNC(=N)N)NC(=O)[C@H](CCCNC(=N)N)NC(=O)[C@H](CC(C)C)NC(=O)[C@H](CO)NC(=O)CCOCCOCCOCCOCCNC(=O)[C@H](CCCCNC(=O)CCSCC(=O)NCCO[C@@H]2O[C@H](CO)[C@@H](O[C@@H]3O[C@H](CO)[C@@H](O[C@@H]4O[C@H](CO[C@H]5O[C@H](CO)[C@@H](O)[C@H](O)[C@@H]5O[C@@H]5O[C@H](CO)[C@@H](O[C@@H]6O[C@H](CO[C@]7(C(=O)O)C[C@H](O)[C@@H](NC(C)=O)[C@H]([C@H](O)[C@H](O)CO)O7)[C@H](O)[C@H](O)[C@H]6O)[C@H](O)[C@H]5NC(C)=O)[C@@H](O)[C@H](O[C@H]5O[C@H](CO)[C@@H](O)[C@H](O)[C@@H]5O[C@@H]5O[C@H](CO)[C@@H](O[C@@H]6O[C@H](CO[C@]7(C(=O)O)C[C@H](O)[C@@H](NC(C)=O)[C@H]([C@H](O)[C@H](O)CO)O7)[C@H](O)[C@H](O)[C@H]6O)[C@H](O)[C@H]5NC(C)=O)[C@@H]4O)[C@H](O)[C@H]3NC(C)=O)[C@H](O)[C@H]2NC(C)=O)NC(=O)CCSCC(=O)NCCO[C@@H]2O[C@H](CO)[C@@H](O[C@@H]3O[C@H](CO)[C@@H](O[C@@H]4O[C@H](CO[C@H]5O[C@H](CO)[C@@H](O)[C@H](O)[C@@H]5O[C@@H]5O[C@H](CO)[C@@H](O[C@@H]6O[C@H](CO[C@]7(C(=O)O)C[C@H](O)[C@@H](NC(C)=O)[C@H]([C@H](O)[C@H](O)CO)O7)[C@H](O)[C@H](O)[C@H]6O)[C@H](O)[C@H]5NC(C)=O)[C@@H](O)[C@H](O[C@H]5O[C@H](CO)[C@@H](O)[C@H](O)[C@@H]5O[C@@H]5O[C@H](CO)[C@@H](O[C@@H]6O[C@H](CO[C@]7(C(=O)O)C[C@H](O)[C@@H](NC(C)=O)[C@H]([C@H](O)[C@H](O)CO)O7)[C@H](O)[C@H](O)[C@H]6O)[C@H](O)[C@H]5NC(C)=O)[C@@H]4O)[C@H](O)[C@H]3NC(C)=O)[C@H](O)[C@H]2NC(C)=O)CSSC[C@@H](C(=O)N[C@@H](CC(N)=O)C(=O)N[C@@H](CO)C(=O)N[C@@H](Cc2ccccc2)C(=O)N[C@@H](CCCNC(=N)N)C(=O)N[C@@H](Cc2ccc(O)cc2)C(=O)O)NC(=O)CNC(=O)[C@H](CC(C)C)NC(=O)CNC(=O)[C@H](CO)NC(=O)[C@H](CCC(N)=O)NC(=O)[C@H](C)NC(=O)CNC1=O [Compound 2-34, SG-thioacetamide-(SG-thioacetamide-)Lys-PEG-(3)-hANP(1-28)]	0.53 nM
